# In patent US20050054680A1, “Agonists and antagonists of 5h3-like receptors of invertebrates as pesticides” (priority 2001, published 2005):
# Entries after “also recorded” stand apart in the source; their conditions may differ. Where two headings read alike, the source gives them in different places.
# Tests used:
# aphid Myzus persicae = details: in vivo; cited from earlier work
# [1] = system: C. elegans of the Bristol N2 strain; assay: Automated feeding assay (bead ingestion, pharyngeal pumping); type: in vivo, Caenorhabditis elegans; details: for Effect of 0.325 mM compound on serotonin-stimulated (0.325 mM) bead ingestion: 0.325 mM compound plus 0.325 mM serotonin; for Effect of 0.325 mM compound on bead ingestion: no added serotonin; for IC50: Caenorhabditis elegans
# Text: An automated screening assay has been developed and described in the present Applicants' co-pending International patent application No. PCT/AU00/01476 (WO 01/40500). Using the screening assay, twenty novel tropanyl ester compounds as well as tropanyl dichlorobenzoate were screened for nematicidal activity.
# The assay used was essentially that described in WO 01/40500 with minor modifications. The protocol was as follows:
# (1.) Plate Culture. C. elegans of the Bristol N2 strain (Brenner, 1974) were cultured at room temperature on HMS174 E. coli bacteria (Campbell et al., 1978) spread on a 150 mm diameter petri dish containing enhanced NGM 1.7% (w/v) (Avery and Horvitz, 1990) agar until a good population of adult nematodes was present, but food reserves had not been exhausted.
# (2.) The nematodes were collected by washing each plate with 10 mL and then 5 mL of M9 buffer plate and filtering over a 20 μm nylon mesh (Nytal—Catalogue no. BCNY-HDO02-20) to retain adult nematodes. The nematodes from 7-8 of these 150 mm plates were collected together and placed on a 63 μm mesh filter (Nytal—product code PA-25-43) and washed with 200-250 mL of M9 buffer or MilliQ water. This procedure allows the passage of nematodes whilst retaining larger debris. Finally the nematodes were collected over a 20 μm mesh.
# (3.) Adult nematodes were collected from the mesh using a pasteur pipette and allowed to settle in an eppendorf tube at 1×g for 10 minutes. This packed volume was used to calculate quantities of nematodes for experiments and assays, although nematodes were resuspended in 2-10 volumes of M9 buffer for transfer. Quantitative transfers of nematodes were performed using a Gilson Pipetman P200 or equivalent and a yellow tip with 5 mm cut off the sharp end.
# (4.) Assays were performed in 24 well tissue-lture clusters (Nunc multidish). The final assay volume was 230 μL comprising the following sequential additions: • (i) M9 buffer—sufficient to bring the final volume to 230 μL • ([…]) Any other pharmacological agents—≦1.5 μL of drug in DMSO (or water) • (iv) Nematodes—150 μL of a 10% (v/v) stock in M9 • (v) Fluorescent beads—23 μL of a 1% w/v solution in M9.
# Where serotonin or other pharmacological agents were omitted, the volume was adjusted with M9 buffer. Control experiments included 1.5 μL of DMSO except in the case of ondansetron, which was added from an aqueous stock.
# The fluorescent beads were 1.30 μm uniformly dyed microsphere beads with a hydrophilic surface-coating. The fluorescence excitation maximum was 420 nm and the emission maximum was 485 nm (catalogue code FC04F, carboxylate-modified polystyrene/polyvinyl copolymer, manufactured and supplied by Bangs Laboratories, Inc. 9025 Technology Drive, Fishers, INDIANA 46038-2886, USA).
# (5.) The nematodes were incubated for 60 minutes after the addition of the fluorescent beads at room temperature (≈21° C.) without shaking. The assay was terminated by the addition of 20 μL of 100 mM sodium azide.
# (6.) Two aliquots of 100 μl each were transferred from each well of the 24 well cluster to a pair of wells in a pre-blocked mesh-bottomed plate (see below for details of the mesh-bottomed plate) and the buffer/bead suspension was immediately aspirated away through the filter mesh using a Millipore Multiscreen vacuum manifold.
# (7.) A total of eight washing steps were performed. Each of the first five washes used 200 μL of 1%(w/v) sodium lauryl sulphate (SDS—Sigma) in M9 buffer. The third and fifth washes involved pipetting the solution up and down in the wells of the plate ten times each wash. The SDS washes were followed by three washes with 200 μL of M9 buffer only. At the end of each washing step, solutions were aspirated away through the mesh using a Millipore Multiscreen vacuum manifold. […]
# C. elegans = details: cited from earlier work
# [2] = system: larvae of the lepidopteran Helicoverpa armigera; details: in vivo; cited from earlier work
# insects = details: in vivo; cited from earlier work
# nematode C. elegans = details: cited from earlier work
# [3] = listed as tropanyl dichlorobenzoate
compound,measurement,setting,value
"CN1[C@@H]2CC[C@H]1CC(OC(=O)c1cc(Cl)cc(Cl)c1)C2 (stereo partly shown) [MDL 72222, 3,5-dichlorobenzoic acid tropan-3-yl ester]",Detrimental effects on Myzus persicae,aphid Myzus persicae,"dose-dependent detrimental effects, including lethality"
same,Effect of 0.325 mM compound on serotonin-stimulated (0.325 mM) bead ingestion,[1],reverses strongly
same,Effect of 0.325 mM compound on serotonin-stimulated (0.325 mM) bead ingestion,[1]; [3],strongly reversed
same,Effect of 0.325 mM compound on bead ingestion,[1],inhibits
same,Effect of 0.325 mM compound on bead ingestion,[1]; [3],reduced
same,IC50,"[1]; in the absence of added serotonin, estimated (FIG. 2), read-out: IC50 (dose that depressed the basal bead ingestion rate by 50%)",11 µM
same,IC50,"[1]; in the presence of 1 mM serotonin, estimated from log dose response curves (FIG. 2), read-out: IC50 (inhibitory concentration 50%) for bead ingestion",40 µM
same,Detrimental effects on C. elegans,"C. elegans; in vivo, listed as tropanyl dichlorobenzoate","dose-dependent mortality and other detrimental effects; also recorded: dose-dependent detrimental effects, including lethality"
same,Lowest effective concentration in the chronic toxicity assay,C. elegans; reported previously in WO 01/61000,~11 µM
same,Effect on larval growth rates,[2],reduced growth rates
same,Detrimental effects in insects,insects,"significant detrimental effects, including some mortality"
same,Effect on pharyngeal pumping,"nematode C. elegans; as summarised in the background, no concentration given",profoundly inhibited
same,Effect on serotonin-stimulated rate of pharyngeal pumping,"nematode C. elegans; drug 0.325 mM, serotonin 0.325 mM",antagonised the stimulatory effect
